In ChEMBL document CHEMBL1134111, “Nucleoside analogues as highly potent and selective inhibitors of herpes simplex virus thymidine kinase” (Bioorg Med Chem Lett, 2001):

Tests used:
Thymidine kinase [1] = target: T1, Thymidine kinase (Human herpesvirus 2, UniProt Q6L709); assay: Inhibitory activity against HSV-2 Thymidine Kinase (HSV-2 TK)
T1 sequence (Q6L709 whole entry): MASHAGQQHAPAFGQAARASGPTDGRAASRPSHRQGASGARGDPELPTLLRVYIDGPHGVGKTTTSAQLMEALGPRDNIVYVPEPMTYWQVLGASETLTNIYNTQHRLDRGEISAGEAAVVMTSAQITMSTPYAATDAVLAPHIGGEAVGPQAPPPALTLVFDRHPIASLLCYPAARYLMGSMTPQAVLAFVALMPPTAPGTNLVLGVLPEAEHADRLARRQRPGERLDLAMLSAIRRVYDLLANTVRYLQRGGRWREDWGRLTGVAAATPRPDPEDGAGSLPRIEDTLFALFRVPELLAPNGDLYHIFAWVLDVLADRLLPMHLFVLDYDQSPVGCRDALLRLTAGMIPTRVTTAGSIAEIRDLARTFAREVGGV

Thymidine kinase [2] = target: T2, Thymidine kinase (Human herpesvirus 1 (strain SC16) (HHV-1) (Human herpes simplex virus1), UniProt P06479); assay: Inhibitory activity against HSV-1 Thymidine Kinase (HSV-1 TK)
T2 sequence (P06479 whole entry): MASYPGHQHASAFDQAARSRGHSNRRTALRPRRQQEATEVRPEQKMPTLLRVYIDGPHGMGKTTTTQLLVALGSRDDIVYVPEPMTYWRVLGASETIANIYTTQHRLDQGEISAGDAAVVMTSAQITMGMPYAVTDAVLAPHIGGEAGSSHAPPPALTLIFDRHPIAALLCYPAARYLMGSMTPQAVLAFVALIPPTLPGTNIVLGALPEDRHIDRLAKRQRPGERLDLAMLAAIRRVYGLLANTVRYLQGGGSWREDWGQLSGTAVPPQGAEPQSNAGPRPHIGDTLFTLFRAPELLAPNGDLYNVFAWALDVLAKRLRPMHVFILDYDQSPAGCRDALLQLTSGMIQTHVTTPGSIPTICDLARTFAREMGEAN

Compound | IC50 (Thymidine kinase [1]) | IC50 (Thymidine kinase [2])
CCc1cn([C@@H]2O[C@H](CNC(=O)C3c4ccccc4C(C)(C)c4ccccc43)[C@@H](O)[C@@H]2F)c(=O)[nH]c1=O | 0.28 nM | 1.5 nM
CCc1cn([C@H]2C[C@H](O)[C@@H](CNC(=O)Cc3ccccc3F)O2)c(=O)[nH]c1=O | 140 nM | 700 nM
CCc1cn([C@@H]2O[C@H](CNC(=O)C3c4ccccc4C(C(F)(F)F)(C(F)(F)F)c4ccccc43)[C@@H](O)[C@@H]2F)c(=O)[nH]c1=O | 0.11 nM | 0.19 nM
CCc1cn([C@H]2C[C@H](O)[C@@H](CNC(=O)C3c4ccccc4-c4ccccc43)O2)c(=O)[nH]c1=O | 5.2 nM | 28 nM
CCc1cn([C@@H]2O[C@H](CNC(=O)C3c4ccccc4Oc4c(Cl)cccc43)[C@@H](O)[C@@H]2F)c(=O)[nH]c1=O (some centres undefined) | 0.14 nM | 0.85 nM
CCc1cn([C@@H]2O[C@H](CNC(=O)C3c4ccccc4Sc4ccccc43)[C@@H](O)[C@@H]2F)c(=O)[nH]c1=O | 0.7 nM | 8.5 nM
CCc1cn([C@H]2C[C@H](O)[C@@H](CNC(=O)C3c4ccccc4Sc4ccccc43)O2)c(=O)[nH]c1=O | 1.4 nM | 11.5 nM
CCc1cn([C@@H]2O[C@H](CNC(=O)C3c4ccccc4Oc4ccccc43)[C@@H](O)[C@@H]2F)c(=O)[nH]c1=O | 0.11 nM | 2.1 nM
CCc1cn([C@@H]2O[C@H](CNC(=O)C3c4ccccc4Oc4c3cccc4C(F)(F)F)[C@@H](O)[C@@H]2F)c(=O)[nH]c1=O (some centres undefined) | 0.14 nM | 1 nM
CCc1cn([C@@H]2O[C@H](CNC(=O)C3c4cccc(C)c4Oc4c(C)cccc43)[C@@H](O)[C@@H]2F)c(=O)[nH]c1=O | 0.43 nM | 2.2 nM
CCc1cn([C@H]2C[C@H](O)[C@@H](CNC(=O)Cc3ccccc3C)O2)c(=O)[nH]c1=O | 60 nM | 200 nM
CCc1cn([C@@H]2O[C@H](CNC(=O)C3c4ccccc4Oc4c(-c5ccccc5)cccc43)[C@@H](O)[C@@H]2F)c(=O)[nH]c1=O (some centres undefined) | 0.14 nM | 0.66 nM
CCc1cn([C@@H]2O[C@H](CNC(=O)C3c4ccccc4Oc4c(C)cccc43)[C@@H](O)[C@@H]2F)c(=O)[nH]c1=O (some centres undefined) | 0.19 nM | 1.6 nM
CCc1cn([C@H]2C[C@H](O)[C@@H](CNC(=O)Cc3ccccc3Cl)O2)c(=O)[nH]c1=O | 30 nM | 100 nM
CCc1cn([C@H]2C[C@H](O)[C@@H](CNC(=O)Cc3ccccc3)O2)c(=O)[nH]c1=O | 300 nM | 1000 nM
CCc1cn([C@@H]2O[C@H](CNC(=O)C3c4ccccc4Oc4c(OC)cccc43)[C@@H](O)[C@@H]2F)c(=O)[nH]c1=O (some centres undefined) | 0.21 nM | 1.7 nM

Compound | IC50 (Thymidine kinase [1]) | IC50 (Thymidine kinase [2])
CCc1cn([C@H]2C[C@H](O)[C@@H](CNC(=O)C3c4ccccc4CCc4ccccc43)O2)c(=O)[nH]c1=O | 44 nM | 260 nM
CCc1cn([C@H]2C[C@H](O)[C@@H](CNC(=O)C3c4ccccc4S(=O)(=O)c4ccccc43)O2)c(=O)[nH]c1=O | 0.13 nM | 0.95 nM
CCc1cn([C@H]2C[C@H](O)[C@@H](CNC(=O)C3c4ccccc4Cc4ccccc43)O2)c(=O)[nH]c1=O | 1.2 nM | 7 nM
CCc1cn([C@H]2C[C@H](O)[C@@H](CNC(=O)c3c4ccccc4cc4ccccc34)O2)c(=O)[nH]c1=O | 420 nM | 1650 nM
CCc1cn([C@@H]2O[C@H](CNC(=O)[C@H](C)Oc3cc(OC)c(Cl)cc3Cl)[C@@H](O)[C@@H]2F)c(=O)[nH]c1=O | 0.19 nM | 1.8 nM
CCc1cn([C@H]2C[C@H](O)[C@@H](CNC(=O)Cc3c(Cl)cccc3Cl)O2)c(=O)[nH]c1=O | 3.3 nM | 1 nM
CCc1cn([C@H]2C[C@H](O)[C@@H](CNC(=O)Cc3ccccc3C(F)(F)F)O2)c(=O)[nH]c1=O | 90 nM | 200 nM
CCc1cn([C@@H]2O[C@H](CNC(=O)C3c4ccccc4S(=O)(=O)c4ccccc43)[C@@H](O)[C@@H]2F)c(=O)[nH]c1=O | 0.11 nM | 0.93 nM
CCc1cn([C@H]2C[C@H](O)[C@@H](CNC(=O)Cc3c(C)cccc3C)O2)c(=O)[nH]c1=O | 8.4 nM | 40 nM
CCc1cn([C@@H]2O[C@H](CNC(=O)C3c4ccccc4Sc4c(Cl)cccc43)[C@@H](O)[C@@H]2F)c(=O)[nH]c1=O (some centres undefined) | 0.21 nM | 1.5 nM
CCc1cn([C@H]2C[C@H](O)[C@@H](CNC(=O)C3c4ccccc4Oc4ccccc43)O2)c(=O)[nH]c1=O | 0.13 nM | 2.9 nM
CCc1cn([C@H]2C[C@H](O)[C@@H](CNC(=O)Cc3ccccc3-c3ccccc3)O2)c(=O)[nH]c1=O | 90 nM | 240 nM
CCc1cn([C@H]2C[C@H](O)[C@@H](CNC(=O)Cc3ccccc3OC)O2)c(=O)[nH]c1=O | 70 nM | 300 nM
CCc1cn([C@@H]2O[C@H](CNC(=O)C3c4cccc(Cl)c4Oc4c(Cl)cccc43)[C@@H](O)[C@@H]2F)c(=O)[nH]c1=O | 0.1 nM | 0.3 nM
CCc1cn([C@@H]2O[C@H](CNC(=O)C3c4ccccc4S(=O)(=O)c4c(Cl)cccc43)[C@@H](O)[C@@H]2F)c(=O)[nH]c1=O (some centres undefined) | 0.09 nM | 0.27 nM
CCc1cn([C@H]2C[C@H](O)[C@@H](CNC(=O)C3c4ccccc4N(C)c4ccccc43)O2)c(=O)[nH]c1=O | 2.6 nM | 23 nM
